Data: patent US12319676B2, “Substituted amide compounds useful as farnesoid X receptor modulators” (BRISTOL-MYERS SQUIBB COMPANY, priority 2019, dated 2025)

Target: T1, human FXR (Homo sapiens, UniProt Q96RI1)
T1 construct: expressed in transfected cells; host or cells: HEK293 cells stably carrying a 5xGal4 response element-luciferase reporter, transiently transfected with pcDNA3.1-Gal4-FXR
T1 sequence (Q96RI1 262-486 limits assumed): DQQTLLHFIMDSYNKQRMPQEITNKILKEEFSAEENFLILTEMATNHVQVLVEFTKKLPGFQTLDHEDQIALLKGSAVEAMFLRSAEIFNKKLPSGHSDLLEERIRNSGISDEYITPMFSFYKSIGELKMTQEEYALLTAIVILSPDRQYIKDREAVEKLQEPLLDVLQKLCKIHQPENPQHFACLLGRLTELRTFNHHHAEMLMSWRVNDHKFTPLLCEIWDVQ
Experiment: transient human FXR/Gal4-luciferase reporter assay
Type: cell-based
Settings: Gal4-hFXR fusion construct, luciferase reporter in HEK293 cells; overnight incubation; response as percentage of 8 μM GW-4064 control
Experimental: The exemplified compounds of the present invention were tested in the transient human FXR/Gal4-luciferase reporter assay, and assay results were reported in Table 1 and Examples 1 to 3 together with other analytical data. A Gal4-hFXR fusion construct reporter system was used as the primary assay to characterize compound activity. A construct including 5 copies of the Gal4 promoter response element upstream of a firefly luciferase reporter cDNA was stably expressed in HEK293 cells. This reporter cell line was maintained in Dulbecco's Modified Eagle's medium (DMEM; Gibco) supplemented with 1% penicillin-streptomycin (P/S) solution, 500 μg/mL Zeocin and 10% charcoal/dextran-treated fetal bovine serum (cs-FBS) at 37° C. in a humidified 5% CO2 atmosphere. Another plasmid was constructed in which the human cytomegalovirus promoter in the pcDNA3.1 vector directs the expression of the cDNA encoding a fusion protein comprised of the DNA binding domain from the Gal4 transcription factor fused to the ligand binding domain from human FXR. The day prior to transfection, the reporter cells in culture are detached from the plate with trypsin and plated into a T75 flask at a sufficient density to achieve approximately 90% confluence the next morning. The transfection reagents are prepared by separately diluting 25 μg of the pcDNA3.1-Gal4-FXR plasmid into 1.87 mL of Opti-MEM (Thermo-Fisher), and 40 μL of Lipofectamine 2000 (Thermo-Fisher) into 1.87 mL of Opti-MEM, and then adding the diluted DNA solution into the diluted Lipofectamine 2000 solution and incubating at room temperature for 15-20 minutes. The mixture is further diluted with 10 mL of a solution comprised of DMEM, 10% cs-FBS, and 1% P/S immediately prior to transferring to the cells. The maintenance culture media is aspirated from the cells and the final transfection mixture is added before the cells are incubated overnight at 37° C. in a humidified 5% CO2 atmosphere. This protocol can be scaled up, and the transiently transfected cells can be cryopreserved in an assay-ready format. For compound testing, 100 nL of the compounds (serial dilutions in DMSO) are dispensed with an Echo acoustic dispenser (Labcyte) into the wells of a Corning/Costar clear bottom 384-well white plate. The transfected cells are harvested, counted, and diluted such that 10-25,000 cells in 25 μL are plated into each well of the 384-well compound assay plate. The compound-treated cells are incubated overnight at 37° C. in a humidified 5% CO2 atmosphere. The next morning 25 μL of Steady-Glo (Promega) are added to each well of the plate, the mixture is incubated for 15 min. with shaking, and luminescence is measured on an Envision (Perkin Elmer) plate reader. Background counts from cells treated with DMSO alone are subtracted from all raw counts, and the corrected values are converted to a percentage of the control response attained with 8 μM GW-4064.

Row | Structure (SMILES) | EC50 [nM]
1 | CC(F)(F)c1nc(C23CCC(CN(C(=O)C45CC(F)(C4)C5)c4cccc(P(C)(C)=O)c4)(CC2)CC3)no1 [Example 25, N-((4-(5-(1,1-difluoroethyl)-1,2,4-oxadiazol-3-yl)bicyclo[2.2.2]octan-1-yl)methyl)-N-(3-(dimethylphosphoryl)phenyl)-3-fluorobicyclo[1.1.1]pentane-1-carboxamide] | 4000
2 | CCNC(=O)c1cccc(N(CC23CCC(c4noc(C(C)(F)F)n4)(CC2)CC3)C(=O)C23CC(F)(C2)C3)c1 [Example 28, N-((4-(5-(1,1-difluoroethyl)-1,2,4-oxadiazol-3-yl)bicyclo[2.2.2]octan-1-yl)methyl)-N-(3-(ethylcarbamoyl)phenyl)-3-fluorobicyclo[1.1.1]pentane-1-carboxamide] | 210
3 | CC(C)(C)OC(=O)Nc1cccc(N(CC23CCC(c4noc(C(C)(F)F)n4)(CC2)CC3)C(=O)C23CC(F)(C2)C3)c1 [Example 32, Tert-butyl (3-(N-((4-(5-(1,1-difluoroethyl)-1,2,4-oxadiazol-3-yl)bicyclo[2.2.2]octan-1-yl)methyl)-3-fluorobicyclo[1.1.1]pentane-1-carboxamido)phenyl)carbamate] | 62
4 | CC(F)(F)c1nc(C23CCC(CN(C(=O)C45CC(F)(C4)C5)c4cccc(Br)c4)(CC2)CC3)no1 [Example 33, N-(3-bromophenyl)-N-((4-(5-(1,1-difluoroethyl)-1,2,4-oxadiazol-3-yl)bicyclo[2.2.2]octan-1-yl)methyl)-3-fluorobicyclo[1.1.1]pentane-1-carboxamide] | 13
5 | O=C(N(CC12CCC(c3noc(C4(F)CC4)n3)(CC1)CC2)c1cccc(Br)c1)C12CC(F)(C1)C2 [Example 34, N-(3-bromophenyl)-3-fluoro-N-((4-(5-(1-fluorocyclopropyl)-1,2,4-oxadiazol-3-yl)bicyclo[2.2.2]octan-1-yl)methyl)bicyclo[1.1.1]pentane-1-carboxamide] | 20
6 | O=C(N(CC12CCC(c3noc(C(F)(F)F)n3)(CC1)CC2)c1cccc(Br)c1)C12CC(F)(C1)C2 [Example 35, N-(3-bromophenyl)-3-fluoro-N-((4-(5-(trifluoromethyl)-1,2,4-oxadiazol-3-yl)bicyclo[2.2.2]octan-1-yl)methyl)bicyclo[1.1.1]pentane-1-carboxamide] | 42
7 | CC(C)(C)c1noc(C23CCC(CN(C(=O)C45CC(F)(C4)C5)c4ccc(Cl)c(Br)c4)(CC2)CC3)n1 [Example 37, N-(3-bromo-4-chlorophenyl)-N-((4-(3-(tert-butyl)-1,2,4-oxadiazol-5-yl)bicyclo[2.2.2]octan-1-yl)methyl)-3-fluorobicyclo[1.1.1]pentane-1-carboxamide] | 1080
8 | CC(C)(C)c1noc(C23CCC(CN(C(=O)C45CC(F)(C4)C5)c4cccc(C#N)c4)(CC2)CC3)n1 [Example 38, N-((4-(3-(tert-butyl)-1,2,4-oxadiazol-5-yl)bicyclo[2.2.2]octan-1-yl)methyl)-N-(3-cyanophenyl)-3-fluorobicyclo[1.1.1]pentane-1-carboxamide] | 142
9 | CC(C)(C)c1noc(C23CCC(CN(c4cccc(C#N)c4)C(=O)[C@H]4C[C@@](C)(O)C4)(CC2)CC3)n1 [Example 40, (1S,3S)-N-((4-(3-(tert-butyl)-1,2,4-oxadiazol-5-yl)bicyclo[2.2.2]octan-1-yl)methyl)-N-(3-cyanophenyl)-3-hydroxy-3-methylcyclobutane-1-carboxamide] | 1260

More lines, now with the values ahead:

Row | EC50 [nM] | Structure (SMILES)
10 | 4000 | CC(F)(F)c1nc(C23CCC(CN(C(=O)C4CCC(F)(F)CC4)c4cccc(S(=O)(=O)NC5CC5)c4)(CC2)CC3)no1 [Example 20, N-(3-(N-cyclopropylsulfamoyl)phenyl)-N-((4-(5-(1,1-difluoroethyl)-1,2,4-oxadiazol-3-yl)bicyclo[2.2.2]octan-1-yl)methyl)-4,4-difluorocyclohexane-1-carboxamide]
11 | 4000 | CNS(=O)(=O)c1cccc(N(CC23CCC(c4noc(C(C)(F)F)n4)(CC2)CC3)C(=O)C23CC(F)(C2)C3)c1 [Example 21, N-((4-(5-(1,1-difluoroethyl)-1,2,4-oxadiazol-3-yl)bicyclo[2.2.2]octan-1-yl)methyl)-3-fluoro-N-(3-(N-methylsulfamoyl)phenyl)bicyclo[1.1.1]pentane-1-carboxamide]
12 | 4000 | CNS(=O)(=O)c1cccc(N(CC23CCC(c4noc(C(C)(F)F)n4)(CC2)CC3)C(=O)[C@H]2C[C@](O)(C(F)(F)F)C2)c1 [Example 22, (1S,3S)-N-((4-(5-(1,1-difluoroethyl)-1,2,4-oxadiazol-3-yl)bicyclo[2.2.2]octan-1-yl)methyl)-3-hydroxy-N-(3-(N-methylsulfamoyl)phenyl)-3-(trifluoromethyl)cyclobutane-1-carboxamide]
13 | 4000 | CNS(=O)(=O)c1cccc(N(CC23CCC(c4noc(C(C)(F)F)n4)(CC2)CC3)C(=O)C2CCC(F)(F)CC2)c1 [Example 23, N-((4-(5-(1,1-difluoroethyl)-1,2,4-oxadiazol-3-yl)bicyclo[2.2.2]octan-1-yl)methyl)-4,4-difluoro-N-(3-(N-methylsulfamoyl)phenyl)cyclohexane-1-carboxamide]
14 | 4000 | CC(F)(F)c1nc(C23CCC(CN(C(=O)C4CCC(F)(F)CC4)c4cccc(P(C)(C)=O)c4)(CC2)CC3)no1 [Example 24, N-((4-(5-(1,1-difluoroethyl)-1,2,4-oxadiazol-3-yl)bicyclo[2.2.2]octan-1-yl)methyl)-N-(3-(dimethylphosphoryl)phenyl)-4,4-difluorocyclohexane-1-carboxamide]
15 | 4000 | CC(F)(F)c1nc(C23CCC(CN(c4cccc(P(C)(C)=O)c4)C(=O)[C@H]4C[C@](O)(C(F)(F)F)C4)(CC2)CC3)no1 [Example 26, (1S,3S)-N-((4-(5-(1,1-difluoroethyl)-1,2,4-oxadiazol-3-yl)bicyclo[2.2.2]octan-1-yl)methyl)-N-(3-(dimethylphosphoryl)phenyl)-3-hydroxy-3-(trifluoromethyl)cyclobutane-1-carboxamide]
16 | 72 | COC(=O)c1cccc(N(CC23CCC(c4noc(C(C)(F)F)n4)(CC2)CC3)C(=O)C23CC(F)(C2)C3)c1 [Example 27, Methyl 3-(N-((4-(5-(1,1-difluoroethyl)-1,2,4-oxadiazol-3-yl)bicyclo[2.2.2]octan-1-yl)methyl)-3-fluorobicyclo[1.1.1]pentane-1-carboxamido)benzoate]
17 | 902 | CC(F)(F)c1nc(C23CCC(CN(C(=O)C45CC(F)(C4)C5)c4cccc(C(N)=O)c4)(CC2)CC3)no1 [Example 29, N-(3-carbamoylphenyl)-N-((4-(5-(1,1-difluoroethyl)-1,2,4-oxadiazol-3-yl)bicyclo[2.2.2]octan-1-yl)methyl)-3-fluorobicyclo[1.1.1]pentane-1-carboxamide]
18 | 150 | CC(F)(F)c1nc(C23CCC(CN(C(=O)N[C@H]4CC[C@](C)(O)CC4)c4cccc(Br)c4)(CC2)CC3)no1 [Example 30, 1-(3-bromophenyl)-1-((4-(5-(1,1-difluoroethyl)-1,2,4-oxadiazol-3-yl)bicyclo[2.2.2]octan-1-yl)methyl)-3-((1R,4R)-4-hydroxy-4-methylcyclohexyl)urea]
19 | 135 | CC(C)(C)c1noc(C23CCC(CN(c4cccc(Br)c4)C(=O)[C@H]4C[C@](O)(C(F)(F)F)C4)(CC2)CC3)n1 [Example 36, (1S,3S)—N-(3-bromophenyl)-N-((4-(3-(tert-butyl)-1,2,4-oxadiazol-5-yl)bicyclo[2.2.2]octan-1-yl)methyl)-3-hydroxy-3-(trifluoromethyl)cyclobutane-1-carboxamide]
20 | 568 | CC(C)(C)c1noc(C23CCC(CN(c4cccc(C#N)c4)C(=O)[C@H]4C[C@](O)(C(F)(F)F)C4)(CC2)CC3)n1 [Example 39, (1S,3S)-N-((4-(3-(tert-butyl)-1,2,4-oxadiazol-5-yl)bicyclo[2.2.2]octan-1-yl)methyl)-N-(3-cyanophenyl)-3-hydroxy-3-(trifluoromethyl)cyclobutane-1-carboxamide]
